The text below walks through data of US20230399312A1, “SUBSTITUTED PYRIMIDINES AND METHODS OF USE” (THERAVANCE BIOPHARMA R&D IP, LLC, priority 2020, published 2023).

Experiment [1] relates to TGF-β-stimulated SMAD3 phosphorylation in BEAS-2B cells. Kind of experiment: Cellular ALK5 potency assay, inhibition of TGF-β stimulated pSMAD3 formation in BEAS-2B cells. In kind it is cell-based. As to conditions: Homo sapiens, pSMAD3, TGF-β 10 ng/mL, read-out: BEAS2B pIC50 (converted). In short, it runs like this: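 Reported as pIC50, potency reflects dose-dependent loss of AlphaLISA pSMAD3 signal versus TGF-β-stimulated, compound-free BEAS-2B cells. Compound was applied for 1 h in BSA-containing HBSS buffer before a 30-min challenge with TGF-β at 10 ng/mL final.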

The target in experiment [2] is T1, recombinant human ALK5 (TGF-βR1) protein (Homo sapiens, UniProt P36897).
T1 construct: purchased Life Technologies PR9075A
T1 sequence (P36897 34-503): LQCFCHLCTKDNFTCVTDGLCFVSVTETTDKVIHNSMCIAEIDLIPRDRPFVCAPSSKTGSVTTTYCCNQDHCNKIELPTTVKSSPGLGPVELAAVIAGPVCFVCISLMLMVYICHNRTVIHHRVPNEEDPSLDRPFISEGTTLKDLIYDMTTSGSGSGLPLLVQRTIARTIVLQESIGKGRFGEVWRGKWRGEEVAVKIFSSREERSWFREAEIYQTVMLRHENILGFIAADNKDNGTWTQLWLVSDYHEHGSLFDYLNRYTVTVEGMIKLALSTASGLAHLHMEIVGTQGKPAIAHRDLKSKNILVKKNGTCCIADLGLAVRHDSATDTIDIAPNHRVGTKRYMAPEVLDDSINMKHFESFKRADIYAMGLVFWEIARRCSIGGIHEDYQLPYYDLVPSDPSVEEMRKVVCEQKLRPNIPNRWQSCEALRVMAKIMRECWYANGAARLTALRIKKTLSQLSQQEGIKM
Kind of experiment: Biochemical ALK5 (TGF-βR1) assay to measure pKi (LANCE Ultra ULight kinase assay). The following applies: apparent pKi, converted from pIC50 by Cheng-Prusoff. The method in brief: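 Read-out was LANCE Ultra TR-FRET with a europium anti-phospho-Topo IIα Thr1342 antibody after EDTA quench. Kinase reaction ran 60 min at 37 °C with ATP added from a 125 μM 5× stock, after 60 min compound–enzyme equilibration at room temperature. Values are pKi from Cheng-Prusoff conversion of fitted pIC50.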
(TR-FRET usually uses a lanthanide donor and a delayed reading to cut background.)

Regarding `Cc1cccc(-c2nccc(Nc3ccnc(Nc4cc(C(=O)O[C@H]5CCNC5)ccn4)n3)n2)n1` [Compound 632, [(3S)-pyrrolidin-3-yl] 2-[[4-[[2-(6-methyl-2-pyridyl)pyrimidin-4-yl]amino]pyrimidin-2-yl]amino]pyridine-4-carboxylate], the IC50 in experiment [1] was 25.1 to 158 nM. In addition, the Ki in experiment [2] is 3.98 to 31.6 nM.
In the same order, the values of `Cc1ccc(O)cc1-c1nccc(Nc2ccnc(Nc3ccc(N4CCOCC4)cc3)n2)n1` [Compound 166, 4-methyl-3-[4-[[2-(4-morpholinoanilino)pyrimidin-4-yl]amino]pyrimidin-2-yl]phenol] are 25.1 to 158 nM and 3.98 to 31.6 nM.
In the same order, the values of `Cc1cccc(-c2nccc(Nc3ccnc(Nc4cncc(CN5CC(C(=O)O)C5)c4)n3)n2)n1` [Compound 603, 1-[[5-[[4-[[2-(6-methyl-2-pyridyl)pyrimidin-4-yl]amino]pyrimidin-2-yl]amino]-3-pyridyl]methyl]azetidine-3-carboxylic acid] are 1580 to 10000 nM and 0.0398 to 0.316 nM.
In the same order, the values of `Cc1cccc(-c2nccc(Nc3ccnc(Nc4cccc(CN5C6CCC5CNC6)c4)n3)n2)n1` [Compound 424, N2-[3-(3,8-diazabicyclo[3.2.1]octan-8-ylmethyl)phenyl]-N4-[2-(6-methyl-2-pyridyl)pyrimidin-4-yl]pyrimidine-2,4-diamine] are 25.1 to 158 nM and 0.0398 to 0.316 nM.
Regarding `Cc1cccc(-c2nc(Nc3ccnc(Nc4ccc(NC5CNC5)cc4)n3)c3cccn3n2)n1` [Compound 1040, N2-[4-(azetidin-3-ylamino)phenyl]-N4-[2-(6-methyl-2-pyridyl)pyrrolo[2,1-f][1,2,4]triazin-4-yl]pyrimidine-2,4-diamine], in experiment [1], the IC50 was 25.1 to 158 nM. For the same compound, the Ki in experiment [2] is 0.0398 to 0.316 nM.
The like results for `Cc1cccc(-c2nccc(Nc3ccnc(Nc4ccc(CN5CCC[C@@H](C(=O)O[C@H]6CCN(C)C6)C5)cc4)n3)n2)n1` [Compound 139, [(3S)-1-methylpyrrolidin-3-yl] (3R)-1-[[4-[[4-[[2-(6-methyl-2-pyridyl)pyrimidin-4-yl]amino]pyrimidin-2-yl]amino]phenyl]methyl] piperidine-3-carboxylate] were, in that order, no more than 20 nM and 0.0398 to 0.316 nM.
The like results for `Cc1cccc(-c2nccc(Nc3ccnc(Nc4ccc(N5CCNCC5)cn4)n3)n2)n1` [Compound 121, N4-(2-(6-methylpyridin-2-yl)pyrimidin-4-yl)-N2-(5-(piperazin-1-yl)pyridin-2-yl)pyrimidine-2,4-diamine] were, in that order, 25.1 to 158 nM and 0.398 to 3.16 nM.
Turning to `Cc1cccc(-c2nccc(Nc3ccnc(Nc4ccc(NC(=O)N5CCN[C@@H](CO)C5)cc4)n3)n2)n1` [Compound 276, (3R)-3-(hydroxymethyl)-N-[4-[[4-[[2-(6-methyl-2-pyridyl)pyrimidin-4-yl]amino]pyrimidin-2-yl]amino]phenyl]piperazine-1-carboxamide], the IC50 in experiment [1] was 25.1 to 158 nM. Moreover, the Ki in experiment [2] was 0.0398 to 0.316 nM.
The like results for `CC[C@H](C)OC(=O)Cc1cc(Nc2nccc(Nc3ccnc(-c4cccc(C)n4)n3)n2)ccc1N1CCNCC1` [Compound 466, [(1S)-1-methylpropyl] 2-[5-[[4-[[2-(6-methyl-2-pyridyl)pyrimidin-4-yl]amino]pyrimidin-2-yl]amino]-2-piperazin-1-yl-phenyl]acetate] were, in that order, 25.1 to 158 nM and 0.0398 to 0.316 nM.
In the same order, the values of `Cc1cccc(-c2nccc(Nc3ccnc(Nc4ccc(Cl)c(CN5C[C@@H](C)N[C@@H](C)C5)c4)n3)n2)n1` [Compound 381, N2-[4-chloro-3-[[rac-(3R,5S)-3,5-dimethylpiperazin-1-yl]methyl]phenyl]-N4-[2-(6-methyl-2-pyridyl)pyrimidin-4-yl]pyrimidine-2,4-diamine] are 25.1 to 158 nM and 0.0398 to 0.316 nM.
In the same order, the values of `Cc1cccc(-c2nccc(Nc3ccnc(Nc4ccc(C(=O)OCC5CNC5)cc4)n3)n2)n1` [Compound 33, azetidin-3-ylmethyl 4-((4-((2-(6-methylpyridin-2-yl)pyrimidin-4-yl)amino)pyrimidin-2-yl)amino)benzoate] are 25.1 to 158 nM and 0.0398 to 0.316 nM.
As to `Cc1cccc(-c2nccc(Nc3ccnc(Nc4ccc(CN5[C@H]6CCNC[C@@H]5CC6)cc4)n3)n2)n1` (racemic) [Compound 360, N4-[2-(6-methyl-2-pyridyl)pyrimidin-4-yl]-N2-[4-[[rac-(1S,6R)-3,9-diazabicyclo[4.2.1]nonan-9-yl]methyl]phenyl]pyrimidine-2,4-diamine], the IC50 in experiment [1] is 25.1 to 158 nM. Moreover, in experiment [2], the Ki was 0.0398 to 0.316 nM.
On to `Cc1cccc(-c2nccc(Nc3ccnc(Nc4ccc(CN5CCOCC5)cc4)n3)n2)n1` [Compound 366, N4-[2-(6-methyl-2-pyridyl)pyrimidin-4-yl]-N2-[4-(morpholinomethyl)phenyl] pyrimidine-2,4-diamine], for which, in experiment [1], the IC50 was 25.1 to 158 nM. Besides, the Ki in experiment [2] is 0.0398 to 0.316 nM.
In the same order, the values of `Cc1cccc(-c2nccc(Nc3ccnc(Nc4ccc(CN5C[C@H](C)NC[C@@H]5C)cc4)n3)n2)n1` [Compound 453, N2-[4-[[(2S,5S)-2,5-dimethylpiperazin-1-yl]methyl]phenyl]-N4-[2-(6-methyl-2-pyridyl)pyrimidin-4-yl]pyrimidine-2,4-diamine] are 25.1 to 158 nM and 0.0398 to 0.316 nM.
The like results for `Cc1cccc(-c2nccc(Nc3ccnc(Nc4ccc(C(=O)OCCN5CCN6CCCC6C5)nc4)n3)n2)n1` (stereo not shown) [Compound 613, 2-(3,4,6,7,8,8a-hexahydro-1H-pyrrolo[1,2-a]pyrazin-2-yl)ethyl 5-[[4-[[2-(6-methyl-2-pyridyl)pyrimidin-4-yl]amino]pyrimidin-2-yl]amino]pyridine-2-carboxylate] were, in that order, 25.1 to 158 nM and 0.398 to 3.16 nM.
In the same order, the values of `CCC(C)OC(=O)C1CNCCN1c1ccc(Nc2nccc(Nc3ccnc(-c4cccc(C)n4)n3)n2)cc1` (racemic) [Compound 230, [rac-(1R)-1-methylpropyl] 1-[4-[[4-[[2-(6-methyl-2-pyridyl)pyrimidin-4-yl]amino]pyrimidin-2-yl]amino]phenyl]piperazine-2-carboxylate] are 25.1 to 158 nM and 0.398 to 3.16 nM.
On to `Cc1cccc(-c2nccc(Nc3ccnc(Nc4ccc(C)c(CN5C[C@@H](C)N[C@@H](C)C5)c4)n3)n2)n1` [Compound 81, N4-[2-(6-methyl-2-pyridyl)pyrimidin-4-yl]-N2-[4-methyl-3-[[rac-(3R,5S)-3,5-dimethylpiperazin-1-yl]methyl]phenyl]pyrimidine-2,4-diamine], for which the IC50 in experiment [1] was 25.1 to 158 nM. The Ki in experiment [2] is 0.0398 to 0.316 nM.
In the same order, the values of `Cc1cccc(-c2nccc(Nc3ccnc(Nc4ccc(CN(C)C)cc4)n3)n2)n1` [Compound 24, N2-[4-[(dimethylamino)methyl]phenyl]-N4-[2-(6-methyl-2-pyridyl)pyrimidin-4-yl]pyrimidine-2,4-diamine] are 25.1 to 158 nM and no more than 0.0316 nM.
In the same order, the values of `COC(=O)c1cnc(-c2cccc(C)n2)nc1Nc1ccnc(Nc2ccc(N)cc2)n1` [Compound 437, methyl 4-[[2-(4-aminoanilino)pyrimidin-4-yl]amino]-2-(6-methyl-2-pyridyl)pyrimidine-5-carboxylate] are 25.1 to 158 nM and 0.398 to 3.16 nM.
The like results for `Cc1cccc(-c2nccc(Nc3ccnc(Nc4csc(CN5CCNCC5)c4)n3)n2)n1` [Compound 94, N4-(2-(6-methylpyridin-2-yl)pyrimidin-4-yl)-N2-(5-(piperazin-1-ylmethyl)thiophen-3-yl)pyrimidine-2,4-diamine] were, in that order, no more than 20 nM and no more than 0.0316 nM.
For the compound `Cc1cccc(-c2nccc(Nc3ccnc(Nc4ccc(C(=O)OC[C@@H]5CCCNC5)nc4)n3)n2)n1` [Compound 625, [(3R)-3-piperidyl]methyl 5-[[4-[[2-(6-methyl-2-pyridyl)pyrimidin-4-yl]amino]pyrimidin-2-yl]amino]pyridine-2-carboxylate], the IC50 in experiment [1] is 25.1 to 158 nM. Moreover, in experiment [2], the Ki was 0.0398 to 0.316 nM.
For `Cc1cccc(-c2nccc(Nc3ccnc(Nc4ccc(CN5C[C@H]6C[C@@H]5CN6)cc4)n3)n2)n1` [Compound 279, N2-[4-[[(1R,4R)-2,5-diazabicyclo[2.2.1]heptan-2-yl]methyl]phenyl]-N4-[2-(6-methyl-2-pyridyl)pyrimidin-4-yl]pyrimidine-2,4-diamine], the IC50 in experiment [1] is 25.1 to 158 nM. Moreover, the Ki in experiment [2] is 0.0398 to 0.316 nM.
In the same order, the values of `Cc1cccc(-c2nccc(Nc3ccnc(Nc4ccc(N5CCNCC5CC(=O)OCC(C)C)cc4)n3)n2)n1` (stereo not shown) [Compound 41, isobutyl 2-[1-[4-[[4-[[2-(6-methyl-2-pyridyl)pyrimidin-4-yl]amino]pyrimidin-2-yl]amino]phenyl]piperazin-2-yl]acetate] are 25.1 to 158 nM and 0.0398 to 0.316 nM.
